The target in one assay is T1, Aminopeptidase N (Plasmodium falciparum FcB1/Columbia, UniProt O96935).
T1 sequence (O96935 whole entry): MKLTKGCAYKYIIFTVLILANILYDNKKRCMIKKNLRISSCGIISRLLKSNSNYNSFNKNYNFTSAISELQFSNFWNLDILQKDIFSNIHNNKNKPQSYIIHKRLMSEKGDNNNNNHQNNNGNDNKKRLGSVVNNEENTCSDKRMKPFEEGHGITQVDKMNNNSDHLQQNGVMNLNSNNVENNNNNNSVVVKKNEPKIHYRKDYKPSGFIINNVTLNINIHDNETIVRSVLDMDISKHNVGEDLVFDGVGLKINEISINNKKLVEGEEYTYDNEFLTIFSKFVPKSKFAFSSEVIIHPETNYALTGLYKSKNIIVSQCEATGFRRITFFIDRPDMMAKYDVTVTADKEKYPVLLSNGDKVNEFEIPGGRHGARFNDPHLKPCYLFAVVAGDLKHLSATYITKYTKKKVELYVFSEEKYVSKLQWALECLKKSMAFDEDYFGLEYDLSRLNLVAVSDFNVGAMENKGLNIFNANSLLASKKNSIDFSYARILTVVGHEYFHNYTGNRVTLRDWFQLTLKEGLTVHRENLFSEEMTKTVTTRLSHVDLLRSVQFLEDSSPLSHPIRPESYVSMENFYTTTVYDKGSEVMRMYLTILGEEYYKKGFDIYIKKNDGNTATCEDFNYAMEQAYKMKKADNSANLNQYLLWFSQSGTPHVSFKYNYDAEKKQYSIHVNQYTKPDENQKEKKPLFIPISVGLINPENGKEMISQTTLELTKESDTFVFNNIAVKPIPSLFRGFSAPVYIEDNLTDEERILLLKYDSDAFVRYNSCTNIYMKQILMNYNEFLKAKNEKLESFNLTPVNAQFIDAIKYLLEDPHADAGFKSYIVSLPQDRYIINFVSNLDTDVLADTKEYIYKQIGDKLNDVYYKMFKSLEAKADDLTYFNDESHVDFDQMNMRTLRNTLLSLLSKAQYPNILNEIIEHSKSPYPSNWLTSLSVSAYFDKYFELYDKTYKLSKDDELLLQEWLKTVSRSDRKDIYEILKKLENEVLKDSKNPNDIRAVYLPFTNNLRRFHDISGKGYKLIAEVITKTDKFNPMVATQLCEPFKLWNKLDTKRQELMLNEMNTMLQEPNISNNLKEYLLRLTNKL
Nature of the assay: malaria alanyl aminopeptidase activity blockers – biochemical, fluorogenic H-Leu-NHMec substrate, 1536-well (AID 1445). Details: species or system Plasmodium falciparum 3D7, 3D7.

For assay [1], the target named is T2, High affinity choline transporter 1 (Homo sapiens, UniProt Q9GZV3).
T2 sequence (Q9GZV3 whole entry): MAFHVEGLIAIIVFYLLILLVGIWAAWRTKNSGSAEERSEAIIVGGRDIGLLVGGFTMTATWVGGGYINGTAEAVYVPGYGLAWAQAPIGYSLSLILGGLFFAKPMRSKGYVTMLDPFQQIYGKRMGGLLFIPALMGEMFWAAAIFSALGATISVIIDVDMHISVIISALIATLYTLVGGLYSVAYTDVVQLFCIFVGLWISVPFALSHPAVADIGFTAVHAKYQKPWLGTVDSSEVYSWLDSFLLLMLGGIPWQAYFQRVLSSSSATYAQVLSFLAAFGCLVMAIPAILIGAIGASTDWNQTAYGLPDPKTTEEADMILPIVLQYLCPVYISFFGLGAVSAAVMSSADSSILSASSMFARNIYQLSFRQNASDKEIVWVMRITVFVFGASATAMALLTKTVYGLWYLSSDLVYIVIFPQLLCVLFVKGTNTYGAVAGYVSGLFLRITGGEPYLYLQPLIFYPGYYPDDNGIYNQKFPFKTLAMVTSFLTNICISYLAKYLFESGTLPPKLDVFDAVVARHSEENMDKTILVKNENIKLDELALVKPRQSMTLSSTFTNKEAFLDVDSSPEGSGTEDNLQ
The assay can be described thus: human choline transporter blockers, potency – cell-based, 5-point CRC, membrane potential dye, dose response (AID 504840). It is filed as functional.

Assay [2] is described as follows: Luminescence Cell-Based Dose Retest to Confirm Inhibitors of Cancer Stem Cells. [Related pubchem assays (depositor defined):AID2717, AID2721]. It is filed as functional. To be noted: Homo sapiens.
The nature of assay [3]: loss of viability in HepG2 cells – cell-based, CellTiter-Glo, cherry-picked, cytotoxicity control for Shn3 inhibitor project, dose response (AID 624134). The assay is classed as functional. For orientation: Cellular ATP, detected with luciferase, serves as a proxy for viable cell number.
Assay [4] can be described thus: reduction of Shn3 3'UTR-driven luciferase in osteoblasts – cell-based, Clone20 osteoblasts, firefly luciferase, cherry-picked, dose response (AID 624132).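 Note: firefly luciferase luminescence from reporter carrying the Shn3 3'UTR in osteoblasts.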 It is filed as functional.
Assay [5] in a line: non-specific 3'UTR reporter inhibition in Clone20-Shn3RL – cell-based, Renilla luciferase, cherry-picked, counter-screen for Shn3 inhibitor project, dose response (AID 624133). It is filed as functional. For orientation: A counterscreen serves to expose hits that act by an unwanted route or on another target.
Assay [6] addresses T3, Heat shock factor protein 1 (Mus musculus, UniProt P38532).
T3 sequence (P38532 whole entry): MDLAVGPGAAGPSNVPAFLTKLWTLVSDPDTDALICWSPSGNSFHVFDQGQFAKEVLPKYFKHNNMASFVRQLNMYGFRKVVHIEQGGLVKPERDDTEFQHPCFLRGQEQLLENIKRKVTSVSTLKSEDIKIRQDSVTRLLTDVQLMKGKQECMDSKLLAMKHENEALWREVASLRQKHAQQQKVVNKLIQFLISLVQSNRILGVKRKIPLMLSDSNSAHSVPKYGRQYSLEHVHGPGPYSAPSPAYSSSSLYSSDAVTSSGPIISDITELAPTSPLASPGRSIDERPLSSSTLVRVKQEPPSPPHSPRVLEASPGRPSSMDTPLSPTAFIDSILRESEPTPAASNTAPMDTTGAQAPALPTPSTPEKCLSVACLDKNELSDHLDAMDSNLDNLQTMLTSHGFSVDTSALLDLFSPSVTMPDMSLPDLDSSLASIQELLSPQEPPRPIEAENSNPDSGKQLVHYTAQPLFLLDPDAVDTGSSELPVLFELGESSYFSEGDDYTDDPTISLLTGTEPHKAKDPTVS
The assay can be described thus: enhancement of HSF1-driven luciferase signal – cell-based, NIH3T3, luminescence, dose retest, confirmation (AID 435004).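 Note: stress induced by proteasome inhibitor MG132 added 30 min after compound; luciferase reporter driven by HSF1 response element in NIH3T3 cells; actives raise luminescence as potentiators of the MG132 stress response.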 The assay is classed as functional.

The next assay has as its target Genome polyprotein (dengue virus type 2, UniProt P29990). Nature of the assay: flavivirus cap methylation enzyme inhibition – biochemical, confirmation dose response, primary screen (AID 588689). The assay is classed as functional.
The nature of assay [7]: A549 cell cytotoxicity, dose response, cytotoxicity control, plate reader, cherry-pick, antagonist series (AID 743412). It is filed as functional, cell-based.
Assay [8] in a line: intracellular Trypanosoma cruzi inhibitors in host cells – cell-based, plate reader, cherry-pick samples, set 3, dose response (AID 651818).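 Note: compounds incubated with infected cells for about four days.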 The assay is classed as functional.
A short description of assay [9]: OVCAR8 cell viability loss – plate reader, dry powder samples, PAX8 project, dose response (AID 743197). The assay is classed as functional, cell-based. As to conditions: OVCAR-8.
For a further assay, the target named is Paired box protein Pax-8 (Homo sapiens, UniProt Q06710). The assay can be described thus: PAX8 transcriptional activity inhibition in RMG-I – RMG-I cells, luciferase, cherry-pick, dose response (AID 687027).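 Note: luciferase reporter driven by Pax8 target thyroperoxidase promoter measured by SteadyGlo luminescence.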 The assay is classed as functional, cell-based.
Sequence of Paired box protein Pax-8 (Q06710 whole entry): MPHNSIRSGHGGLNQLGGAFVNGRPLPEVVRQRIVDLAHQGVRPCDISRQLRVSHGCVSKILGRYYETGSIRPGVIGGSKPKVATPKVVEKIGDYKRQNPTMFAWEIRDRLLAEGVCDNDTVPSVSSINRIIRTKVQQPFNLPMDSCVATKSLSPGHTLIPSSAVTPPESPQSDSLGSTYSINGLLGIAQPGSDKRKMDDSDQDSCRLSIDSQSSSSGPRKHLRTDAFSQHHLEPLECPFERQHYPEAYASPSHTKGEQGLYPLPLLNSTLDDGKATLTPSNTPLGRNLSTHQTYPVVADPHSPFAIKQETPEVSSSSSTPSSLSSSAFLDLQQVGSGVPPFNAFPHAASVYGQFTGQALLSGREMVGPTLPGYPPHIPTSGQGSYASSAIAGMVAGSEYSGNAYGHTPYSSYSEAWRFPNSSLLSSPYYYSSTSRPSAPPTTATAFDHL
Assay [10] can be described thus: cells. It is filed as functional, cell-based.
The nature of assay [11]: cells. It is filed as functional, cell-based. This is another data set of the same source.

Molecules are shown by their SMILES. Calls of active or inactive are those of the source.

Sequence of Genome polyprotein (P29990 2492-3391 limits assumed): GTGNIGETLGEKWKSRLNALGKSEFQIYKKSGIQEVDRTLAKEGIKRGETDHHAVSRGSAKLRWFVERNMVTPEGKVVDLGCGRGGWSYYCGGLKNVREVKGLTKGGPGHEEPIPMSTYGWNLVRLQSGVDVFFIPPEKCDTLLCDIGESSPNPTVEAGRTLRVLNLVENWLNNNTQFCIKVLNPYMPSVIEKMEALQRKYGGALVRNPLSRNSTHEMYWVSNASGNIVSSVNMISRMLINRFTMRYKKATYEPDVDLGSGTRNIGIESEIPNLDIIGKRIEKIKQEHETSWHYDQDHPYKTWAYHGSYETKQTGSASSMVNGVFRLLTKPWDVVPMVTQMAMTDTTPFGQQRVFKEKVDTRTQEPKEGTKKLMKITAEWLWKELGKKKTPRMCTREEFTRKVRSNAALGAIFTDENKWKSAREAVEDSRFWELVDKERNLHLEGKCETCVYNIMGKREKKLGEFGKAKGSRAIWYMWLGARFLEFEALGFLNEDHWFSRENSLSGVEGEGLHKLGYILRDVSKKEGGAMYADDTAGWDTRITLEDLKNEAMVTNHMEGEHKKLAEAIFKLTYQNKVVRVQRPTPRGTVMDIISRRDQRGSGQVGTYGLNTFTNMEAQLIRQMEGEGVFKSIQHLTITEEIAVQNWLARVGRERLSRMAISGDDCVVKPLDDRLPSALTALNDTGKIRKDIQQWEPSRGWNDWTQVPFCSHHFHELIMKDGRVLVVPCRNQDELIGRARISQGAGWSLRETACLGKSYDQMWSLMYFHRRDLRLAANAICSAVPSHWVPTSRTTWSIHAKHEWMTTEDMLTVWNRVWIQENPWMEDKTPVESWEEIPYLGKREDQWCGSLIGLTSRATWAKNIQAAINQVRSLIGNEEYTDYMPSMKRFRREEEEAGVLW

One may read the IC50 as the concentration that gives 50% inhibition. Take `COc1ccc(CNC(=O)C2CCN(S(=O)(=O)c3cc(OC)ccc3OC)CC2)cc1`: at Aminopeptidase N, the IC50 was 99 µM (active).
For `Cc1ccc(C)c(C(=O)COc2ncnc3ccccc23)c1`, in assay [1], the half-inhibitory concentration (IC50) was 15.1 µM (active).
Broadly, the AC50 is the concentration at which the activity in the assay is half-maximal. Take `CCc1ccc2oc(C(=O)NCC(c3ccc(OC)cc3)N3CCCCC3)c(C)c2c1` (configuration not stated): in [1], the concentration for half-maximal inhibition (IC50) was 2.29 µM (active). In addition, the half-maximal activity concentration (AC50) in assay [2] is 3.23 µM (active).
In the case of `O=C(O)c1cccc(S(=O)(=O)Nc2ccc([N+](=O)[O-])cc2O)c1`, the 50% inhibitory concentration (IC50) at Aminopeptidase N was 66.2 µM (active).
For `O=S(=O)(c1ccc2c(c1)OCCO2)N1CCC(n2nnc3cc(F)ccc32)CC1`, the half-maximal inhibitory concentration (IC50) at Aminopeptidase N is 8.18 µM (active).
As a reminder, the EC50 is the concentration at which the effect is half-maximal. On to `CCCCCn1c(N2CCN(c3cccc(Cl)c3)CC2)nc2c1c(=O)[nH]c(=O)n2C`, for which the AC50 in assay [3] was 59.4 µM (active); in assay [4] it was 21.8 µM (active); in assay [5], 18.3 µM (active). Besides, the EC50 in [6] is > 260 µM (inactive).
`CCc1ccc(S(=O)(=O)NCc2cn3cccc(C)c3n2)s1`: in [1], the IC50 is 13.8 µM (active).
With `Nc1ccccc1Sc1ccc(C(=O)c2ccccc2C(=O)O)cc1[N+](=O)[O-]`, the IC50 on Aminopeptidase N was 98.9 µM (active).
Take `O=C1NC(=O)C(=Cc2c[nH]nc2-c2ccccc2)C(=O)N1`: the half-maximal inhibitory concentration (IC50) at Genome polyprotein is 53 µM (active).
With `CC[C@H](CO)Oc1cc(NCc2ccc(Cl)c(Cl)c2)c2ncn(C(C)C)c2c1`, in [7], the half-maximal activity concentration (AC50) was 30 µM (active).
Consider `COc1ccc(C2(O)CCN(C(=O)NC3CCCCC3)CC2)cc1`, for which the 50% inhibitory concentration (IC50) in [1] is 14.5 µM (active).
`Cc1noc(NS(=O)(=O)c2ccc(NC(=O)c3ccccc3NS(=O)(=O)c3ccc(F)cc3)cc2)c1C`: on Genome polyprotein, the concentration for half-maximal inhibition (IC50) is 40.9 µM (active).
The same measure, in the same setting: for `O=C1c2ccccc2C(O)(c2ccccc2)N1c1ccc([N+](=O)[O-])cc1Cl` (configuration not stated) the value was 60.8 µM (active).
`Cc1noc(C)c1S(=O)(=O)Nc1ccc2c(c1)C(=O)N([C@H](C)CO)C[C@H](C)[C@@H](CN(C)C(=O)Nc1ccc(C(F)(F)F)cc1)OCCCC[C@@H](C)O2`: the AC50 in assay [8] was 1.19 µM (active).
On the same count and under the same terms, for `C[C@@H]1CN([C@@H](C)CO)C(=O)Cc2cc(NC(=O)CCC(F)(F)F)ccc2O[C@@H]1CN(C)Cc1ccc(C(=O)Nc2ccccc2N)cc1` the value was 2.67 µM (active).
As for `C[C@H]1CN([C@@H](C)CO)C(=O)c2cccc(NC(=O)Nc3ccc(F)cc3)c2O[C@@H]1CN(C)Cc1ccc(C(=O)Nc2ccccc2N)cc1`, the AC50 in [8] was 3.18 µM (active).
Same read-out and setting: for `C[C@@H]1CN([C@@H](C)CO)C(=O)c2cccc(NC(=O)c3cnccn3)c2O[C@@H]1CN(C)Cc1ccc(C(=O)Nc2ccccc2N)cc1` the value was 2.35 µM (active); for `C[C@@H]1CN([C@H](C)CO)C(=O)c2cccc(NC(=O)c3ccncc3)c2O[C@@H]1CN(C)Cc1ccc(-c2ccccc2)cc1`, 4.37 µM (active); for `C[C@@H]1CN([C@@H](C)CO)C(=O)c2cccc(NC(=O)C3CCCCC3)c2O[C@H]1CN(C)Cc1ccc(-c2ccccc2)cc1`, 3.29 µM (active).
Regarding `C[C@H]1CCCCO[C@H](CN(C)Cc2ccc(Cl)c(Cl)c2)[C@@H](C)CN([C@@H](C)CO)C(=O)c2cc(NC(=O)Nc3ccccc3)ccc2O1`, the results for the AC50 (in assay [9]; at Paired box protein Pax-8) were > 70 µM (inactive) and 13.1 µM (active), respectively.
For `C[C@@H]1CCCCO[C@@H](CN(C)Cc2ccc(C(F)(F)F)cc2)[C@@H](C)CN([C@@H](C)CO)C(=O)c2cc(NS(=O)(=O)c3ccccc3)ccc2O1` the same measures were > 70 µM (inactive) and 7.21 µM (active).
For `C[C@@H]1CN([C@H](C)CO)C(=O)c2cc(NS(=O)(=O)c3ccccc3)ccc2O[C@@H](C)CCCCO[C@H]1CN(C)Cc1ccc(Cl)c(Cl)c1` the same measures were 45 µM (active) and 9.93 µM (active).
On to `O=C(CNC(=O)c1ccccc1Br)N/N=C/c1cc(Br)ccc1O`, for which the concentration for half-maximal inhibition (IC50) on Aminopeptidase N is 26.6 µM (active). The EC50 was > 350 µM (not active) in “cells [10]” and 34.7 µM (active) in “cells [11]”.

Source of the values: ChEMBL document CHEMBL1201862, “PubChem BioAssay data set” (2004).
